Experimental data taken from PMC11187260, “Unraveling the interconversion pharmacokinetics and oral bioavailability of the major ginger constituents: [6]-gingerol, [6]-shogaol, and zingerone after single-dose administration in rats” (Frontiers in Pharmacology, 2024).
Read-outs that look alike come from different tables or passages of the source.

Experiments:
Format in all cases: in vivo, Female Sprague Dawley rats
[1] = Safety evaluation: physical appearance and blood chemistry after single i.v. or p.o. dose; settings: for ALP / ALT / AST / BUN / Creatinine: post-dose (24 h), mean ± SD n=6; for Physical appearance: post-dose
Protocol: (§1) This study is composed of two sections; the first section involves an investigation of the interconversion pharmacokinetics of the pure compounds, and the second focuses on tissue distribution. All rats were transferred to metabolic cages and fasted overnight for at least 10 h. The animals were then randomly divided into four groups (6 rats/group) to receive a single intravenous (i.v.) administration of either 6G, 6S, zingerone, or vehicle via the lateral tail vein at a dosage of 3 mg/kg. After a 7-week washout period, the rats received 30 mg/kg of the same test compounds through a single oral (p.o.) administration. Following each administration, blood samples (300 µL) were collected in heparinized tubes from the lateral tail vein (while rats were under anesthesia with isoflurane) at specified time points: 0.083, 0.25, 0.5, 1, 1.5, 2, 3, 4, 6, 8, and 24 h after administration. An additional 1 mL of blood sample was collected from each rat at pre-dose (0 h) and post-dose (24 h) for clinical laboratory testing and safety evaluation. All heparinized blood samples were initially centrifuged at 5,000 × g, 4 °C, for 10 min. Subsequently, the plasma was carefully transferred to a cryotube as an aliquot sample and then stored at −40 °C until analysis. Urine and feces were collected during the intervals of 0–24 h and 24–48 h post-dosing, and their weights and volumes were documented. All collected urine and feces samples were stored at −40 °C until analysis.
Plasma samples were collected at baseline (T0) and T24 h for the determination of blood chemistry, including levels of blood urea nitrogen (BUN), creatinine, aspartate transaminase (AST), alanine transaminase (ALT), and alkaline phosphatase (ALP). The analyses were conducted by the Exclusive Veterinary Professional Laboratory Center (Bangkok, Thailand). The creatinine level was determined using an enzymatic oxidase assay, while AST and ALT levels were determined using the procedure of the International Federation of Clinical Chemistry (IFCC) without pyridoxal phosphate activation.

[2] = Pharmacokinetics and oral bioavailability after single oral administration (30 mg/kg), plasma LC-MS/MS; settings: for bioavailability / AUC(0-inf) / AUC(0-t) / Tmax: plasma, 30 mg/kg; for AUC(0-t): read-out: AUC(0-t); for Tmax: median [IQR]; for presence of parent compound in plasma: following oral administration; for time to detectable plasma levels: oral administration of pure compound; for time to reach peak plasma concentration (Cmax): parent compound after oral administration 30 mg/kg
Protocol: as §1
Plasma samples were processed through protein precipitation. In brief, 50 µL of plasma was mixed with 200 µL of methanol containing 50 ng/mL of IS (dihydrocapsaicin). The mixtures were vortexed and centrifuged at 14,000 × g at 4 °C for 10 min. The supernatant was filtered through a […] PVDF membrane (Chrome Tech, MN, USA) before analysis.
(§2) Investigation of glucuronide conjugations followed a previously published method with some modification ([Wang et al., 2017]; [Songvut et al., 2023]). A 50 μL aliquot of plasma, urine, or feces sample was incubated at 37 °C for a minimum of 30 min with 50 μL of β-glucuronidase (3,000 U/mL) in a sodium phosphate buffer (pH 6.8). For sample extraction, 150 μL of methanol containing 50 μg/L of IS was pipetted into the pre-incubated samples. Subsequently, the mixtures were vortexed for 10 min and then centrifuged at 14,000 × g at 4 °C for 10 min. The supernatants were filtered through a […] PVDF membrane (Chrome Tech, MN, United States) and then analyzed using the validated LC-MS/MS method.
Quantitative analysis was conducted using liquid chromatography-tandem mass spectrometry (LC-MS/MS) with a Nexera X2 LCMS-8060NX instrument (Shimadzu, Japan). The instrument included a CBM-40lite system controller, CTO-40C column oven, SIL-40C XR autosampler, LC-40D XR solvent pump unit, FCV-DGU-403 degasser, and 20AH2 switching valve. The LC-MS/MS system was operated with a binary pump and equipped with a triple quadrupole mass spectrometer.
Pharmacokinetic parameters were assessed using PK Solutions software (version 2.0) with non-compartmental analysis. The AUC was calculated using the Linear-Log Trapezoidal Method. The maximum plasma concentration (Cmax) and time to reach maximum plasma concentration (Tmax) were taken directly from the graph.
(§3) Plasma concentration-time profiles were plotted using GraphPad Prism 9.3.0 (GraphPad Software, USA). The absolute oral bioavailability was calculated as follows: F = (AUC p.o./dose p.o.)/(AUC i.v./dose i.v.). The percentage recovery of each administered compound was calculated as the total amount of the drug found in urine or feces divided by the administered dose. The tissue-to-plasma concentration ratios (K p) were calculated by dividing the concentration in the tissue by the corresponding plasma concentration at the respective sampling time point.

[3] = Interconversion clearance between 6G and 6S after intravenous administration; settings: single i.v. 3 mg/kg
Protocol: The interconversion between 6G and 6S was determined using previously published methods ([Ebling and Jusko, 1986]; [Prueksaritanont et al., 2005]). The clearance of 6G biotransformed into 6S was calculated as CL12, while the reverse clearance (6S → 6G) was calculated as CL21. The irreversible elimination clearances of 6G and 6S were calculated as CL10 and CL20, respectively. The following equations were used in accordance with the notation provided in Supplementary Table S3. CL12=Dose^shogaol […] CL21=Dose^gingerol […] CL10=Dose^gingerol x AUCshogaolshogaol- Dose^shogaol […] CL20=Dose^shogaol […]- Dose^gingerol […]

[4] = Percent recovery in urine and feces after intravenous or oral administration; settings: for parent compound recovered in urine: during 24–48 h; for dose excreted: female, Sprague Dawley, rat, % of administered dose; for unchanged form in fecal excretion: within 48 h after intravenous or oral administration
Protocol: as §1
Urine samples were centrifuged, and 50 µL of urine was extracted with 200 µL of 100% methanol. The mixture was vortexed for 10 min and subsequently centrifuged at 14,000 × g at 4 °C for 10 min. Feces and organs were weighed and homogenized with methanol (50:50% w/v). The supernatants of the extracted urine, feces, and organs were also filtered through a […] PVDF membrane (Chrome Tech, MN, USA) before analysis.
as §2, §3

[5] = female, Sprague-Dawley, rat, po, p.o. 30 mg/kg vs i.v. 3 mg/kg of the pure compound, mean ± SD n=6, read-out: %Oral bioavailability
[6] = female, Sprague-Dawley, rat, po, p.o. 30 mg/kg vs i.v. 3 mg/kg of the pure compound, range among rats, read-out: %Oral bioavailability (range)
[7] = female, Sprague-Dawley, rat, po, p.o. 30 mg/kg vs i.v. 3 mg/kg, pure compounds, read-out: absolute oral bioavailability (upper bound)
[8] = female, Sprague-Dawley, rat, po, plasma analyte after [6]-gingerol p.o. 30 mg/kg, mean ± SD n=6
[9] = female, Sprague-Dawley, rat, po, plasma analyte after [6]-gingerol p.o. 30 mg/kg
[10] = feces, iv, 3 mg/kg, intravenous administration 3 mg/kg of parent compound, read-out: % Recovery excretion, feces T 0–24 h
[11] = feces, iv, 3 mg/kg, intravenous administration 3 mg/kg of parent compound, read-out: % Recovery excretion, feces T 24–48 h
[12] = feces, po, 30 mg/kg, oral administration 30 mg/kg of parent compound, read-out: % Recovery excretion, feces T 0–24 h
[13] = feces, po, 30 mg/kg, oral administration 30 mg/kg of parent compound, read-out: % Recovery excretion, feces T 24–48 h
[14] = urine, iv, 3 mg/kg, intravenous administration 3 mg/kg of parent compound, read-out: % Recovery excretion, urine T 0–24 h
[15] = urine, iv, 3 mg/kg, intravenous administration 3 mg/kg of parent compound, read-out: % Recovery excretion, urine T 24–48 h
[16] = urine, po, 30 mg/kg, oral administration 30 mg/kg of parent compound, read-out: % Recovery excretion, urine T 0–24 h
[17] = urine, po, 30 mg/kg, oral administration 30 mg/kg of parent compound, read-out: % Recovery excretion, urine T 24–48 h
[18] = female, Sprague-Dawley, rat, po, plasma analyte after zingerone p.o. 30 mg/kg, mean ± SD n=6

Row | SMILES | ALP ([1]; i.v. 3 mg/kg) [U/L] | ALT ([1]; i.v. 3 mg/kg) [U/L] | AST ([1]; i.v. 3 mg/kg) [U/L] | BUN ([1]; i.v. 3 mg/kg) [mg/dL] | Creatinine ([1]; i.v. 3 mg/kg) [mg/dL] | ALP ([1]; p.o. 30 mg/kg) [U/L] | ALT ([1]; p.o. 30 mg/kg) [U/L] | AST ([1]; p.o. 30 mg/kg) [U/L] | BUN ([1]; p.o. 30 mg/kg) [mg/dL] | Creatinine ([1]; p.o. 30 mg/kg) [mg/dL] | Physical appearance ([1]; i.v. 3 mg/kg) | Physical appearance ([1]; p.o. 30 mg/kg) | bioavailability [2, 5] [%] | bioavailability [2, 6] [%] | bioavailability [2, 7] [%] | AUC(0-inf) [2, 8] [ng·h/mL] | AUC(0-t) [2, 8] [ng·h/mL] | Tmax [2, 9] [min] | presence of parent compound in plasma [2] | time to detectable plasma levels [2] [min] | also measured
1 | CCCCC[C@H](O)CC(=O)CCc1ccc(O)c(OC)c1 [[6]-gingerol] | 44.67 ± 7.09 | 20.33 ± 2.42 | 65.83 ± 19.66 | 12.83 ± 2.64 | 0.73 ± 0.04 | 32.67 ± 7.45 | 21.23 ± 2.44 | 60.50 ± 7.12 | 12.17 ± 2.86 | 0.66 ± 0.03 | Normal | Normal | 0.17 ± 0.11 | 0.1 to 0.4 | < 2 | 92.1 ± 26.9 | 92.1 ± 26.9 | 4.8 | up to 4 h | ≤ 5 | plasma level of converted product ([2]; after oral administration of 6S 30 mg/kg): undetectable; time to reach peak plasma concentration (Cmax) [2]: 5 to 45 min; clearance ([3]; female, Sprague-Dawley, rat, plasma, iv, read-out: CL10 (irreversible elimination clearance of 6G) (converted)): 8.67 mL/min/kg; CL12 relative to reverse clearance CL21 [3]: approximately sevenfold greater; parent compound recovered in urine [4]: less than 1%; dose excreted [4, 10]: 0.005 ± 0.002%; dose excreted [4, 11]: 0.005 ± 0.001%; dose excreted [4, 12]: 0.001 ± 0.001%; dose excreted [4, 13]: < 0.001%; dose excreted [4, 14]: 0.623 ± 0.706%; dose excreted [4, 15]: 0.008 ± 0.005%; dose excreted [4, 16]: 0.1 ± 0.102%; dose excreted [4, 17]: 0.002 ± 0.001%; unchanged form in fecal excretion [4]: < 0.1%
2 | COc1cc(CCC(C)=O)ccc1O [zingerone, 4-(4-hydroxy-3-methoxyphenyl)-2-butanone] | 48.50 ± 14.00 | 28.50 ± 5.82 | 64.17 ± 11.05 | 14.17 ± 1.33 | 0.70 ± 0.03 | 35.83 ± 8.38 | 19.33 ± 2.50 | 53.83 ± 6.88 | 9.83 ± 1.47 | 0.75 ± 0.02 | Normal | Normal | 0.75 ± 0.52 | 0.32 to 1.6 | < 2 | 28 ± 7.4 | 28 ± 7.4 | 15 | up to 4 h | ≤ 5 | Tolerability ([1]; single i.v. 3 mg/kg or p.o. 30 mg/kg): exhibited tolerance; plasma detection of zingerone after 6S administration ([2]; after 6S administration (route not given)): not detected; AUC(0-inf) [2, 18]: 950 ± 373 ng·h/mL; AUC(0-t) [2, 18]: 944 ± 348 ng·h/mL; Tmax ([2]; female, Sprague-Dawley, rat, po, plasma analyte after zingerone p.o. 30 mg/kg): 4.8 min; Cmax [2, 18]: 1870 ± 604 ng/mL; time to reach peak plasma concentration (Cmax) [2]: 5 to 45 min; parent compound recovered in urine [4]: less than 1%; dose excreted [4, 10]: 0.049 ± 0.027%; dose excreted [4, 11]: 0.002 ± 0.001%; dose excreted [4, 12]: 0.004 ± 0.003%; dose excreted [4, 13]: 0.057 ± 0.017%; dose excreted [4, 14]: 0.184 ± 0.286%; dose excreted [4, 15]: < 0.001%; dose excreted [4, 16]: 0.049 ± 0.032%; dose excreted [4, 17]: < 0.001%; unchanged form in fecal excretion [4]: < 0.1%
